Our source for the IC50, viability and Activity values is ChEMBL document CHEMBL6103567, “A novel pyridine-2-one AMPK inhibitor: Discovery, mechanism, and in vivo evaluation in a hypoxic pulmonary arterial hypertension rat model” (Eur J Med Chem, 2025).

Experiment [1] can be described thus: Antiproliferative activity against human PASMC cells assessed as cell viability incubated for 48 hrs under hypoxia condition by CCK-8 assay. Type of experiment: toxicity, cell-based. A general note: Formazan colour is commonly taken as a measure of viable cells.
The nature of experiment [2]: Induction of apoptosis in hypoxia-induced human PASMC cells assessed as viable cells at 5 uM incubated for 12 hrs by Annexin V/FITC staining based flow cytometry analysis (reference value: 88.26%). The experiment is classed as functional. The settings on record: read-out: Activity. On the technique in general: In flow cytometry, cells or beads pass a laser one at a time.

The nature of experiment [3]: Induction of apoptosis in hypoxia-induced human PASMC cells assessed as early apoptotic cells at 5 uM incubated for 12 hrs by Annexin V/FITC staining based flow cytometry analysis (reference value: 10.17%). Type of experiment: functional.
Experiment [4] is described as follows: Induction of apoptosis in hypoxia-induced human PASMC cells assessed as late apoptotic cells at 5 uM incubated for 12 hrs by Annexin V/FITC staining based flow cytometry analysis (reference value: 0.88%). Type of experiment: functional.
Experiment [5] is described as follows: Induction of apoptosis in hypoxia-induced human PASMC cells assessed as necrotic cells at 5 uM incubated for 12 hrs by Annexin V/FITC staining based flow cytometry analysis (reference value: 0.68%). The experiment is classed as functional.

SMILES strings stand for the structures. pIC50: −log10 of the molar value.

The term pIC50 denotes the negative decadic logarithm of the IC50, by convention in mol/L.

As for `c1cc(-c2cnn3cc(-c4ccc(OCCN5CCCCC5)cc4)cnc23)ccn1` [DORSOMORPHIN], in experiment [1], the pIC50 was 5.26. Also, the viability at 5 µM in experiment [2] is 89.4%. For the same compound, the values for the Activity in experiment [3], in experiment [4] and in experiment [5] were 7.31%, 1.7% and 1.56%, respectively.
